Assay results: the supplement of paper PMC11061612

Key:
[1] = test system: FU-OV-1 (Ovarian Carcinoma); assay: combination Emax (second highest fraction inhibited in the dose matrix, 72 h); higher = more inhibition; extreme values may be limits of the assay
In short: (§1)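 After 24 hours at 37°C and 5% CO2 in 1536-well plates, cells in DMEM/F12 or RPMI plus 10% FBS received two-drug dose matrices for 72 hours. Viability came from CellTiter-Glo 2.0 luminescence and was scaled as inhibition, anchored at 0 by vehicle wells and at 1 by blank wells. Combination Emax is taken as the second-highest inhibition in the matrix, and Bliss excess as the observed combination effect less EA + EB − EA·EB, with EA and EB the single-agent effects.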

[2] = test system: TC-YIK (Other Solid Carcinomas); assay: as above
In short: as §1

[3] = test system: KG-1 (Acute Myeloid Leukemia); assay: Bliss excess, mean over the matrix (fraction); higher = more synergy
In short: as §1

[4] = test system: FU-OV-1 (Ovarian Carcinoma); assay: as above
In short: as §1

[5] = test system: SNG-M (Endometrial Carcinoma); assay: as above
In short: as §1

[6] = test system: MEG-01 (Chronic Myelogenous Leukemia); assay: as above
In short: as §1

[7] = test system: NCI-H1688 (Small Cell Lung Carcinoma); assay: as above
In short: as §1

SK-MEL-1 (Melanoma) = assay: as above
In short: as §1

[8] = test system: TC-YIK (Other Solid Carcinomas); assay: as above
In short: as §1

[9] = test system: JHH-6 (Hepatocellular Carcinoma); assay: as above
In short: as §1

[10] = test system: GDM-1 (Acute Myeloid Leukemia); assay: as above
In short: as §1

CS1 (Chondrosarcoma) = assay: as above
In short: as §1

[11] = test system: ETK-1 (Biliary Tract Carcinoma); assay: as above
In short: as §1

[12] = test system: SLVL (B-Cell Non-Hodgkin's Lymphoma); assay: as above
In short: as §1

[13] = test system: NOMO-1 (Acute Myeloid Leukemia); assay: as above
In short: as §1
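For Bliss excess, mean over the matrix in this document: after 72 h of two-drug dosing.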

SMILES | combination Emax [1] | combination Emax [2] | Bliss excess [3] | Bliss excess [4] | Bliss excess [5] | Bliss excess [6] | Bliss excess [7] | Bliss excess (SK-MEL-1 (Melanoma)) | Bliss excess [8] | Bliss excess [9] | Bliss excess [10] | Bliss excess (CS1 (Chondrosarcoma)) | Bliss excess [11] | Bliss excess [12] | Bliss excess [13]
C[C@@H](c1ccc2nccn2c1)n1nnc2ncc(-c3cnn(C)c3)nc21 [Savolitinib] + CC1(C)CCC(CN2CCN(c3ccc(C(=O)NS(=O)(=O)c4ccc(NCC5CCOCC5)c([N+](=O)[O-])c4)c(Oc4cnc5[nH]ccc5c4)c3)CC2)=C(c2ccc(Cl)cc2)C1 [Venetoclax] (first compound max 1 µM, 7x7, partner max 1 µM) | 0.2 | 0.108 | -0.015 | -0.0389 | -0.0421 | -0.0223 | -0.047 | -0.0144 | -0.0506 | -0.0918 | -0.0236 | -0.0056 | -0.0777 | -0.0904 | -0.0561
NC1(C(=O)N[C@@H](CCO)c2ccc(Cl)cc2)CCN(c2ncnc3[nH]ccc23)CC1 [Capivasertib] + Cn1cnc2c(F)c(Nc3ccc(Br)cc3Cl)c(C(=O)NOCCO)cc21 [Selumetinib] (first compound max 10 µM, 7x7, partner max 10 µM) | 0.592 | 0.496 | -0.0045 | -0.0316 | 0.0648 | 0.0548 | 0.0549 | 0.0465 | 0.0245 | -0.0262 | 0.072 | 0.0373 | 0.0555 | -0.0251 | 0.0099
COc1nnc2ccc(N3CCC(c4ccc(OCCN5CCN(C)C(=O)[C@H]5C)cc4)CC3)nn12 [AZD5153] + CC1(C)CCC(CN2CCN(c3ccc(C(=O)NS(=O)(=O)c4ccc(NCC5CCOCC5)c([N+](=O)[O-])c4)c(Oc4cnc5[nH]ccc5c4)c3)CC2)=C(c2ccc(Cl)cc2)C1 [Venetoclax] (first compound max 1 µM, 7x7, partner max 1 µM) | 0.631 | 0.862 | 0.163 | -0.0369 | -0.0875 | -0.0627 | -0.003 | 0.0777 | -0.0716 | -0.0443 | 0.0348 | -0.054 | -0.11 | -0.0277 | 0.0051
Cn1cnc2c(F)c(Nc3ccc(Br)cc3Cl)c(C(=O)NOCCO)cc21 [Selumetinib] + CC(C)n1c(=O)n(C)c2cnc3cc(F)c(-c4ccc(OCCCN5CCCCC5)nc4)cc3c21 [AZD1390] (first compound max 10 µM, 7x7, partner max 0.3 µM) | 0.431 | 0.466 | 0.0053 | -0.0109 | -0.0348 | 0.0034 | -0.016 | -0.0378 | 0.0473 | -0.0769 | -0.0523 | -0.0172 | -0.0432 | -0.0557 | -0.0617
NC1(C(=O)N[C@@H](CCO)c2ccc(Cl)cc2)CCN(c2ncnc3[nH]ccc23)CC1 [Capivasertib] + CC(=O)c1c(C)c2cnc(Nc3ccc(N4CCNCC4)cn3)nc2n(C2CCCC2)c1=O [Palbociclib] (first compound max 10 µM, 7x7, partner max 10 µM) | 0.236 | 0.44 | -0.0421 | -0.0388 | -0.0601 | -0.0355 | 0.017 | -0.0307 | -0.048 | -0.0503 | 0.0262 | 0.016 | -0.0711 | -0.024 | 0.0378
Cn1cnc2c(F)c(Nc3ccc(Br)cc3Cl)c(C(=O)NOCCO)cc21 [Selumetinib] + CCN(CCO)CCCOc1ccc2c(Nc3cc(CC(=O)Nc4cccc(F)c4)[nH]n3)ncnc2c1 [AZD2811] (first compound max 10 µM, 7x7, partner max 1 µM) | 0.405 | 0.874 | 0.0789 | 0.0176 | -0.0706 | -0.0001 | -0.0377 | 0.0031 | -0.0495 | -0.0305 | -0.0345 | -0.0043 | -0.0222 | -0.0465 | 0.0333
CC(=O)c1c(C)c2cnc(Nc3ccc(N4CCNCC4)cn3)nc2n(C2CCCC2)c1=O [Palbociclib] + Cc1c2c(nn1C)CSCc1cc(n(C)n1)CSc1cc(c3ccccc3c1)OCCCc1c(C(=O)O)n(C)c3c-2c(Cl)ccc13 [AZD5991] (first compound max 10 µM, 7x7, partner max 1 µM) | 0.235 | 0.547 | -0.0169 | -0.0538 | -0.0233 | 0.0338 | 0.0284 | -0.0014 | -0.0144 | -0.0212 | 0.0919 | -0.035 | -0.0808 | -0.0393 | -0.0915
Cn1cnc2c(F)c(Nc3ccc(Br)cc3Cl)c(C(=O)NOCCO)cc21 [Selumetinib] + C[C@@H]1COCCN1C2=NC(=NC(=C2)C3(CC3)[S@](=N)(=O)C)C4=C5C=CNC5=NC=C4 [AZD6738] (first compound max 10 µM, 7x7, partner max 10 µM) | 0.487 | 0.865 | 0.0218 | 0.0621 | -0.0561 | 0.0135 | -0.0217 | -0.0312 | -0.0582 | -0.0064 | 0.0409 | -0.0706 | -0.036 | -0.107 | -0.0299
